Values after ≈ are worked out from the molar mass of the structure shown. Read-outs that look alike come from different tables or passages of the source.
How the values were obtained:
[1] = tested on: M. tuberculosis (RCMB 010126); assay: Microplate alamar blue assay; assay type: cell-based, Mycobacterium tuberculosis; conditions: Mycobacterium tuberculosis, RCMB010126, sensitive Mycobacterium tuberculosis (RCMB 010126), MABA
B. subtilis (ATCC 9372) = assay: Broth microdilution assay, MIC; assay type: cell-based; conditions: Bacillus subtilis, ATCC9372, read-out: Minimum Inhibitory Concentration
E. coli (ATCC25922) = assay: Broth microdilution assay, MIC; assay type: cell-based; conditions: Escherichia coli, ATCC25922, read-out: Minimum Inhibitory Concentration
S. aureus (ATCC 25923) = assay: Broth microdilution assay, MIC; assay type: cell-based; conditions: Staphylococcus aureus, ATCC25923, read-out: Minimum Inhibitory Concentration
C. albicans (ATCC 10231) = assay: Broth microdilution assay, antifungal MIC/MFC; assay type: cell-based, Candida albicans; conditions: for ratio (MFC/MIC): C. albicans (ATCC 10231); for MFC / MIC: Candida albicans; for fungicidal or fungistatic behavior: C. albicans, MFC/MIC > 4 = fungistatic
[2] = tested on: P. aeruginosa (ATCC 29853); assay: Broth microdilution assay, MIC/MBC; assay type: cell-based; conditions: for MBC / MIC: Pseudomonas aeruginosa; for fold more efficient than amoxicillin / bactericidal or bacteriostatic effect: P. aeruginosa; for fold more efficient than amoxicillin: from MICs; for bactericidal or bacteriostatic effect: MBC/MIC ≤ 4 = bactericidal
[3] = ATCC10231, read-out: Minimum Inhibitory Concentration
[4] = ATCC29853, read-out: Minimum Inhibitory Concentration

SMILES	MIC [1] [µg/mL]	MIC (B. subtilis (ATCC 9372)) [µg/mL]	MIC (E. coli (ATCC25922)) [µg/mL]	MIC (S. aureus (ATCC 25923)) [µg/mL]	ratio (MFC/MIC) (C. albicans (ATCC 10231))	MFC (C. albicans (ATCC 10231); ATCC10231) [µg/mL]	MIC (C. albicans (ATCC 10231); ATCC10231) [µg/mL]	MIC (C. albicans (ATCC 10231); [3]) [µg/mL]	ratio (MBC/MIC) ([2]; P. aeruginosa (ATCC 29853))	MBC ([2]; ATCC29853) [µg/mL]	MIC ([2]; ATCC29853) [µg/mL]	MIC [2, 4] [µg/mL]	fungicidal or fungistatic behavior (C. albicans (ATCC 10231))	fold more efficient than amoxicillin [2]	bactericidal or bacteriostatic effect [2]	Minimum Inhibitory Concentration ([2]; P. aeruginosa (ATCC 29853), Gram-negative, Table 1) [µg/mL]
COc1ccc(OC)c(C2CC(c3cccs3)=NN2C(N)=S)c1 (stereo not shown) [2b, 4,5-Dihydro-5-(2,5-dimethoxyphenyl)-3-(thiophen-2-yl)pyrazole-1-carbothioamide]	15.6 (≈ 44.9 µM)	125 (≈ 360 µM)	62.5 (≈ 180 µM)	250 (≈ 719 µM)	4	250 (≈ 719 µM)	62.5 (≈ 180 µM)	62.5 (≈ 180 µM)	8	500 (≈ 1440 µM)	62.2 (≈ 179 µM)	62.2 (≈ 179 µM)	–	–	–	–
OC(Cn1cncn1)(Cn1cncn1)c1ccc(F)cc1F [fluconazole, reference compound]	–	–	–	–	1	250 (≈ 816 µM)	250 (≈ 816 µM)	250 (≈ 816 µM)	–	–	–	–	–	–	–	–
COc1ccc(OC)c(C2CC(c3cccs3)=NN2c2nc(-c3ccccc3)cs2)c1 (stereo not shown) [4b, 4,5-Dihydro-5-(2,5-dimethoxyphenyl)-1-(4-phenylthiazol-2-yl)-3-(thiophen-2-yl)-1H-pyrazole]	31.2 (≈ 69.8 µM)	250 (≈ 559 µM)	125 (≈ 279 µM)	250 (≈ 559 µM)	8	500 (≈ 1120 µM)	62.5 (≈ 140 µM)	62.5 (≈ 140 µM)	16	250 (≈ 559 µM)	15.6 (≈ 34.9 µM)	15.6 (≈ 34.9 µM)	fungistatic	approximately 32 fold	–	–
COc1ccc(OC)c(C=C2SC(N3N=C(c4cccs4)CC3c3cc(OC)ccc3OC)=NC2=O)c1 (stereo not shown) [8d, 5-(2,5-Dimethoxybenzylidene)-2-(4,5-dihydro-5-(2,5-dimethoxyphenyl)-3-(thiophen-2-yl)pyrazol-1-yl)thiazol-4(5H)-one]	31.2 (≈ 58.3 µM)	125 (≈ 233 µM)	125 (≈ 233 µM)	62.5 (≈ 117 µM)	2	125 (≈ 233 µM)	62.5 (≈ 117 µM)	62.5 (≈ 117 µM)	2	125 (≈ 233 µM)	62.2 (≈ 116 µM)	62.2 (≈ 116 µM)	–	–	bactericidal	–
CC1(C)S[C@@H]2[C@H](NC(=O)[C@H](N)c3ccc(O)cc3)C(=O)N2[C@H]1C(=O)O [amoxicillin, reference compound]	–	31.2 (≈ 85.5 µM)	62.5 (≈ 171 µM)	7.8 (≈ 21.3 µM)	–	–	–	–	>1	> 500	> 500	> 500	–	–	–	>500
O=C1CSC(N2N=C(c3cccs3)CC2c2cccs2)=N1 (stereo not shown) [6a, 2-(4,5-Dihydro-3,5-di(thiophen-2-yl)pyrazol-1-yl)thiazol-4(5H)-one]	31.2 (≈ 93.7 µM)	125 (≈ 375 µM)	125 (≈ 375 µM)	250 (≈ 750 µM)	4	250 (≈ 750 µM)	62.5 (≈ 187 µM)	62.5 (≈ 187 µM)	4	250 (≈ 750 µM)	62.5 (≈ 187 µM)	62.5 (≈ 187 µM)	–	–	bactericidal	–
COc1ccc(OC)c(C2CC(c3cccs3)=NN2c2nc(C)cs2)c1 (stereo not shown) [3b, 4,5-Dihydro-5-(2,5-dimethoxyphenyl)-1-(4-methylthiazol-2-yl)-3-(thiophen-2-yl)-1H-pyrazole]	7.81 (≈ 20.3 µM)	125 (≈ 324 µM)	125 (≈ 324 µM)	250 (≈ 648 µM)	8	250 (≈ 648 µM)	31.2 (≈ 81.1 µM)	31.2 (≈ 81.1 µM)	8	125 (≈ 324 µM)	15.6 (≈ 40.5 µM)	15.6 (≈ 40.5 µM)	fungistatic	approximately 32 fold	–	–
COc1ccc(C=C2SC(N3N=C(c4cccs4)CC3c3cccs3)=NC2=O)cc1 (stereo not shown) [8a, 5-(4-Methoxybenzylidene)-2-(4,5-dihydro-3,5-di(thiophen-2-yl)pyrazol-1-yl)thiazol-4(5H)-one]	31.2 (≈ 69.2 µM)	125 (≈ 277 µM)	125 (≈ 277 µM)	250 (≈ 554 µM)	2	125 (≈ 277 µM)	62.5 (≈ 138 µM)	62.5 (≈ 138 µM)	8	250 (≈ 554 µM)	31.2 (≈ 69.2 µM)	31.2 (≈ 69.2 µM)	–	~16 fold	–	–
CC1SC(N2N=C(c3cccs3)CC2c2cccs2)=NC1=O (stereo not shown) [7a, 2-(4,5-Dihydro-3,5-di(thiophen-2-yl)pyrazol-1-yl)-5-methylthiazol-4(5H)-one]	62.5 (≈ 180 µM)	125 (≈ 360 µM)	125 (≈ 360 µM)	> 500	4	250 (≈ 719 µM)	62.5 (≈ 180 µM)	62.5 (≈ 180 µM)	>1	> 500	> 500	> 500	–	–	–	–
